By MIC is commonly meant the smallest concentration in the dilution series that meets the test's criterion for growth inhibition.

Molecules are shown by their SMILES. Values after ≈ are worked out from the molar mass of the structure shown. A value given as a limit tells only on which side of the number the result lay.

The experiment concerns M. tuberculosis isoniazid-resistant strain (spec. 210). Put plainly: Tuberculostatic activity, test-tube dilution. The experiment is classed as cell-based. Conditions: Mycobacterium tuberculosis, read-out: MIC M. tuberculosis Isoniazid-Resistant Strain.
With `CC[C@H](C(=O)NCc1ccc([N+](=O)[O-])cc1)C1CC[C@H](C)C([C@@H](C)[C@H](O)[C@H](C)C(=O)[C@H](CC)C2O[C@]3(C=C[C@@H](O)C4(CC[C@@](C)(C5CC[C@](O)(CC)[C@H](C)O5)O4)O3)[C@H](C)C[C@@H]2C)O1` (some centres unmarked) [NO2-p], the MIC came out at 50 µg/mL (≈ 56.5 µM).
The same measure for `CC[C@H](C(=O)NCc1cccc(Br)c1)C1CC[C@H](C)C([C@@H](C)[C@H](O)[C@H](C)C(=O)[C@H](CC)C2O[C@]3(C=C[C@@H](O)C4(CC[C@@](C)(C5CC[C@](O)(CC)[C@H](C)O5)O4)O3)[C@H](C)C[C@@H]2C)O1` (some centres unmarked) [Br-m]: > 100 µg/mL; for `CC[C@H](C(=O)NCc1cccc(Cl)c1)C1CC[C@H](C)C([C@@H](C)[C@H](O)[C@H](C)C(=O)[C@H](CC)C2O[C@]3(C=C[C@@H](O)C4(CC[C@@](C)(C5CC[C@](O)(CC)[C@H](C)O5)O4)O3)[C@H](C)C[C@@H]2C)O1` (some centres unmarked) [Cl-m]: > 100 µg/mL; for `CC[C@H](C(=O)NCc1cccc([N+](=O)[O-])c1)C1CC[C@H](C)C([C@@H](C)[C@H](O)[C@H](C)C(=O)[C@H](CC)C2O[C@]3(C=C[C@@H](O)C4(CC[C@@](C)(C5CC[C@](O)(CC)[C@H](C)O5)O4)O3)[C@H](C)C[C@@H]2C)O1` (some centres unmarked) [NO2-m]: > 100 µg/mL.
The same measure for `CCC(C(=O)NCc1ccccc1F)C1CCC(C)C(C(C)C(O)C(C)C(=O)C(CC)C2OC3(C=CC(O)C4(CCC(C)(C5CCC(O)(CC)C(C)O5)O4)O3)C(C)CC2C)O1` (centres unmarked) [F-o]: 100 µg/mL (≈ 117 µM).
Next, `CC[C@H](C(=O)NCc1ccccc1Cl)C1CC[C@H](C)C([C@@H](C)[C@H](O)[C@H](C)C(=O)[C@H](CC)C2O[C@]3(C=C[C@@H](O)C4(CC[C@@](C)(C5CC[C@](O)(CC)[C@H](C)O5)O4)O3)[C@H](C)C[C@@H]2C)O1` (some centres unmarked) [Cl-o]: > 100 µg/mL; `CC[C@H](C(=O)NCc1ccc(Cl)cc1)C1CC[C@H](C)C([C@@H](C)[C@H](O)[C@H](C)C(=O)[C@H](CC)C2O[C@]3(C=C[C@@H](O)C4(CC[C@@](C)(C5CC[C@](O)(CC)[C@H](C)O5)O4)O3)[C@H](C)C[C@@H]2C)O1` (some centres unmarked) [Cl-p, p-chlorobenzyl amide of salinomycin]: > 100 µg/mL; `CC[C@@H](C(=O)[C@@H](C)[C@@H](O)[C@H](C)[C@@H]1O[C@@H]([C@@H](CC)C(=O)O)CC[C@@H]1C)[C@H]1O[C@]2(C=C[C@@H](O)[C@]3(CC[C@@](C)([C@H]4CC[C@](O)(CC)[C@H](C)O4)O3)O2)[C@H](C)C[C@@H]1C` [SAL, Salinomycin]: 50 µg/mL (≈ 66.6 µM).
Turning to `CC[C@H](C(=O)NCc1ccc(F)cc1)C1CC[C@H](C)C([C@@H](C)[C@H](O)[C@H](C)C(=O)[C@H](CC)C2O[C@]3(C=C[C@@H](O)C4(CC[C@@](C)(C5CC[C@](O)(CC)[C@H](C)O5)O4)O3)[C@H](C)C[C@@H]2C)O1` (some centres unmarked) [F-p], the minimal inhibitory concentration (MIC) worked out at 50 µg/mL (≈ 58.3 µM).
The same measure for `CC[C@H](C(=O)NCc1ccc(Br)cc1)C1CC[C@H](C)C([C@@H](C)[C@H](O)[C@H](C)C(=O)[C@H](CC)C2O[C@]3(C=C[C@@H](O)C4(CC[C@@](C)(C5CC[C@](O)(CC)[C@H](C)O5)O4)O3)[C@H](C)C[C@@H]2C)O1` (some centres unmarked) [Br-p]: 100 µg/mL (≈ 109 µM); for `CCC(C(=O)NCc1cccc(F)c1)C1CCC(C)C(C(C)C(O)C(C)C(=O)C(CC)C2OC3(C=CC(O)C4(CCC(C)(C5CCC(O)(CC)C(C)O5)O4)O3)C(C)CC2C)O1` (centres unmarked) [F-m]: > 100 µg/mL.
On to `CCC(C(=O)NCc1ccccc1[N+](=O)[O-])C1CCC(C)C(C(C)C(O)C(C)C(=O)C(CC)C2OC3(C=CC(O)C4(CCC(C)(C5CCC(O)(CC)C(C)O5)O4)O3)C(C)CC2C)O1` (centres unmarked) [NO2-o], for which the minimum inhibitory concentration (MIC) was determined as 100 µg/mL (≈ 113 µM).
`CC[C@H](C(=O)NCc1ccccc1Br)C1CC[C@H](C)C([C@@H](C)[C@H](O)[C@H](C)C(=O)[C@H](CC)C2O[C@]3(C=C[C@@H](O)C4(CC[C@@](C)(C5CC[C@](O)(CC)[C@H](C)O5)O4)O3)[C@H](C)C[C@@H]2C)O1` (some centres unmarked) [Br-o]: the MIC is > 100 µg/mL.
The same measure for `NNC(=O)c1ccncc1` [Isoniazid, isoniazid, reference compound]: 6.25 µg/mL (≈ 45.6 µM).

The record behind these values is paper PMC6271077, “Synthesis, Anticancer and Antibacterial Activity of Salinomycin N-Benzyl Amides” (Molecules, 2014).
